Results on five molecules are retold here after patent US9433588B2, “Delivery of submicrometer and nanometer aerosols to the lungs using hygroscopic excipients or dual stream nasal delivery” (Virginia Commonwealth Univeristy, priority 2009, dated 2016).

Where two headings read alike, the source gives them in different places. Marks after values point to notes of the source that are not given here.

Data set [1] can be described thus: Hygroscopic properties of drugs and excipients (saturation limits, i coefficients, hygroscopic parameter). The class given is physicochemical. The following applies: for Saturated mass fraction (mfsat): mass fraction that can be dissolved in liquid water at 25° C.; for Predicted van't Hoff factor (i): measured in this study, best fit of Eq. (15) to water activity data; for Saturated mole fraction (χsat): mole fraction that can be dissolved in liquid water at 25° C. The method, then:
It is noted that Eq. (15) has a form similar to Raoult's law and is valid for materials that may (i>1) or may not (i=1) dissociate upon dissolution. Specifically, Raoult's law provides a linear expression to describe activity coefficients at low solute concentrations, as presented by Finlay (2001). […] Furthermore, values of the i coefficients in this study are determined based on best fits to experimental data over a range of concentrations. Therefore, the application of Eq. (15) can be viewed as a physically based expression for fitting the experimental data. Finally, high accuracy is required at dilute concentrations, which have the largest impact on the final size achieved by the hygroscopic aerosol.
Experimental measurements were made in this study to determine the water activity coefficients of AS, CA, and PG. Activity coefficients for NaCl and MN were determined from the studies of Cinkotai (1971) and Ninni (2000), respectively. […] In order to represent the hygroscopic effect of molecular dissociation with a single coefficient, curve fits to the experimental data were based on Eq. (15) for a single component solution. The optimal value of i providing the best fit to the experimental data was calculated using a minimization routine. […] This limit was used to ensure accuracy of the i-values for dilute droplets, which is needed to ensure accurate estimates of final droplet size.
[formula] where m and M represent the mass (kg) and molar mass (kg/kmol) of the solute (s) and water (w). […] Based on Eq. (15), is directly impacts the activity coefficient and ρs influences the mass term in the mole fraction calculation (Eq. 17). […] This effect of initial drug or excipient loading can be taken into account as a function of the initial solute volume fraction (vfs). The resulting growth coefficient (GC1) for a single component droplet is then

The conditions of data set [2]: cited from earlier work; for Predicted van't Hoff factor (i): Eq. (15) fit based on Ninni et al. (2000) measurements (MN) or Cinkotai (1971) correlations (NaCl).
Data set [3] is described as follows: In vitro growth system for validation of the numerical model (CAG, growth zone, MOUDI). It counts as physicochemical. On the procedure: Submicrometer drug and drug-hygroscopic excipient particles were formed using a capillary aerosol generator (CAG). The capillary aerosol generation system is described and considered in detail by the previous studies of Hindle et al. (1998) and Longest et al. (2007). In the current study, the formulation was a mixture of 50% water and 50% ethanol by weight to dissolve both hydrophilic and hydrophobic drugs. This solution was heated and pumped through the CAG at a flow rate of 10 mg/s to form the spray aerosol. Single drug and drug-hygroscopic excipient particles were created experimentally for albuterol sulfate (AS), budesonide (BD), and sodium chloride (NaCl). Specifically, single component drug particles were formed using a 0.2% w/v AS solution and a 0.15% w/v BD solution, respectively. Combination drug-hygroscopic excipient particles were generated using a 0.1% AS-0.1% NaCl w/v solution and a 0.1% BD-0.1% NaCl w/v solution, respectively. The spray aerosol was allowed to dry into solid particles by passage through a 52 cm length of dry tubing (FIG. 3). Initial particle size was then assessed by connecting the tubing to a 10 stage MOUDI (MSP Corp, Shoreview, Minn.). To produce growth, the aerosol stream was combined with humidified air at T=25° C. and RH=99% sampled from an environmental cabinet. […] This length was selected to provide a residence time of approximately 0.2 s, which is consistent with the time required for an orally inhaled pharmaceutical aerosol to reach the main bifurcation of the lungs under standard inhalation conditions. Walls of the growth section were pre-wetted to simulate the wet walled conditions of the respiratory tract, which stimulates aerosol growth. The growth tube was not heated and was exposed to 24° C. room temperature air for this initial validation experiment. After exiting the growth tube, the aerosol was passed into the 10 stage MOUDI for size characterization.
In separate experiments, the temperature and humidity of the humidified air and the temperature of the aerosol mixture stream at the inlet to the condensational growth tube were measured. […]
The initial aerodynamic particle size distribution of the aerosol exiting the drying section of tubing was determined using the 10 stage MOUDI operated at 30±2 L/min, which allowed size fractionation between 50 nm and 10 μm. […] The final aerodynamic particle size distribution of the aerosol exiting the condensational growth tube was also determined using the MOUDI operated at 30±2 L/min. […] The mass of drug and excipient on each impaction plate was determined and used to calculate both the initial and final aerodynamic particle size distributions of the drug and combination aerosols. […]

Data set [4] in a line: Generation of submicrometer aerosol with small particle aerosol generator (SPAG) and drying gas. The class given is physicochemical. The following applies: SPAG nebulized and dried; 560 nm: 0.1% solution, 7.5 and 3 L/min; 900 nm: 0.5% solution, 7 and 3 L/min. On the procedure: With LFT, a heated air source is not present for aerosol size reduction, as with HFT. However, medical gases used with LFT (oxygen and helium-oxygen) are typically dry. A study was conducted to evaluate if dry medical-grade gas could be used to produce a submicrometer aerosol from a commercially available nebulizer. A small particle aerosol generator (SPAG) was employed, which functions as a jet nebulizer with an additional relatively large and inefficient drying chamber. […] Specifically, albuterol sulfate solutions were nebulized and dried using a series of nebulizer airflow conditions to produce aerosols with initial mean MMADs (and standard deviations) of 150 (5.5) nm, 560 (11.4) nm, and 900 (32.7) nm (FIG. 11). The 560 nm aerosol was generated using a 0.1% albuterol sulfate in water solution with a nebulizer gas flow rate of 7.5 L/min and a drying gas flow rate of 3 L/min. […]
Nano-sized aqueous-based drug aerosols were generated using a small particle aerosol generator (SPAG-6000, ICN Pharmaceuticals, Costa Mesa, Calif.), and were delivered through a nasal model geometry airway in the presence and absence of ECG conditions. Albuterol sulfate solutions were nebulized using a series of nebulizer airflow conditions to produce aerosols with initial mean (SD) measured size of 900 (32.7) nm. […]

A short description of data set [5]: Hygroscopic growth tube, CAG nanoparticle aerosols sized by cascade impactor. It counts as physicochemical. The following applies: Table 2. On the procedure: Budesonide nanoparticle aerosols were generated using the Capillary Aerosol Generator (CAG). This technology represents a generic means of producing engineered pharmaceutical nanosized particles suitable for inhalation. The CAG utilizes controlled heating of a liquid formulation passing through a capillary tube to produce nanosized dry particles exiting the capillary nozzle.
Hygroscopic growth of these nanoparticle aerosols was evaluated by passing the aerosol through a growth tube. Briefly, following nanoparticle generation the aerosols were drawn through the 29 cm hygroscopic growth tube at a flow rate of 30 L/min. The tube was held at 37° C. and 99% relative humidity (RH) to simulate expected lung conditions. The growth tube was approximately 29 cm, which is consistent with the distance from the mouth inlet to the main bronchi of an adult. Following passage through the tubular geometry the aerosols were delivered to the 10-stage MOUDI or Andersen Cascade Impactor (ACI; Graseby-Andersen Inc, Smyrna, Ga.) for particle sizing. Both the tubular geometry and the cascade impactor were placed in an environmental chamber (Espec Environmental Cabinet, Hudsonville, Mich.) to maintain constant temperature and humidity conditions. The ACI was employed following hygroscopic growth when it was expected that the aerosols produced would be in the 1-3 μm size range. For these studies, the final aerodynamic particle size distribution of the aerosol exiting the hygroscopic growth tube was determined at 28±2 L/min, and humidified co-flow air (99% RH) was supplied to the impactor. […] The mass of drug on each impaction plate was determined and used to calculate both the initial and final aerodynamic particle size distributions of the drug aerosols. The growth ratios were calculated by comparing the final size with the initial size of the nanoparticle as a measure of hygroscopic size increase.
Hygroscopic growth of these nanoparticle aerosols was evaluated by passing the aerosol through a growth tube as described in Example 1. […]

For the molecule `O=C(O)CC(O)(CC(=O)O)C(=O)O` [Citric acid (CA), Citric acid], in data set [1], the “Hygroscopic parameter isρs/Ms” value turned out to be 16.5 kmol/m^3, the “Saturated mass fraction (mfsat)” value is reported as 0.57, the “Predicted van't Hoff factor (i)” value was 1.9^d and the “Saturated mole fraction (χsat)” value came out at 0.11.
With `OC[C@@H](O)[C@@H](O)[C@H](O)[C@H](O)CO` [Mannitol (MN), Mannitol], in data set [1], the “Hygroscopic parameter isρs/Ms” value stood at 8.2 kmol/m^3, the “Saturated mass fraction (mfsat)” value was 0.15 and the “Saturated mole fraction (χsat)” value stood at 0.018. Further, in data set [2], the “Predicted van't Hoff factor (i)” value is on record as 1.0^e.
As to `CC(O)CO` (centres unmarked) [Propylene glycol (PG), Propylene glycol], in data set [1], the “Hygroscopic parameter isρs/Ms” value was determined as 13.6 kmol/m^3, the “Saturated mass fraction (mfsat)” value came out at 1.00, the “Predicted van't Hoff factor (i)” value is 1.0^d and the “Saturated mole fraction (χsat)” value was 1.00.
Regarding `[Cl-].[Na+]` [Sodium chloride (NaCl), Sodium chloride], in data set [1], the “Hygroscopic parameter isρs/Ms” value stood at 77.9 kmol/m^3 and the “Saturated mass fraction (mfsat)” value came to 0.265. Also, the “Predicted van't Hoff factor (i)” value in data set [2] is reported as 2.1^f. In addition, in data set [2] (listed as NaCl), the “Predicted van't Hoff factor (i)” value is 2.1. Moreover, the “i coefficient, Raoult's law form of the equation” value in data set [2] (NaCl data of Cinkotai (1971), through mfs = 0.3) is 1.9.
On to “Albuterol sulfate [Albuterol sulfate (100%)]”, for which, in data set [1], the “Hygroscopic parameter isρs/Ms” value is 4.9 kmol/m^3, the “Saturated mass fraction (mfsat)” value amounted to 0.28, the Predicted van't Hoff factor (i) was 2.1 and the “Saturated mole fraction (χsat)” value came to 0.012. Further, the “Initial MMAD” value in data set [3] (at inlet to growth zone, SD in parentheses, minimum 4 trials) is listed as 0.38 (0.01)^a μm. In data set [3] (calculated from MMAD and dry particle density), the Initial dgeo was 0.33 μm. For the same molecule, the Final dgeo in data set [3] (outlet of 26 cm growth tube, about 0.2 s, 99% RH, assumed equal to the MMAD) is 0.51 (0.04) μm. Moreover, the d/do in data set [3] (ratio of final to initial geometric diameters) was 1.55 (0.12). Further, the “initial mean MMAD (standard deviation)” value in data set [4] is reported as 900 (32.7) nm. The “Initial MMAD” value in data set [5] (CAG-generated albuterol nanoparticles before growth tube, n = 3-4) amounted to 380 nm. Moreover, the “Final MMAD (99% RH)” value in data set [5] (after 29 cm growth tube, 37° C., 99% RH) worked out at 510 nm. Further, the Growth ratio in data set [5] (final size compared with initial size, 29 cm growth tube, 99% RH) came to 1.35.
